Results on one compound are retold here after patent publication US20250346512A1, “WATER TREATMENT METHOD, WATER TREATMENT APPARATUS, SLIME INHIBITOR, AND CLEANING METHOD” (ORGANO CORPORATION, priority 2022, published 2025).

The subject of the experiment is viable bacteria. Put plainly: Contact of slime inhibitor with water containing viable bacteria. Type of experiment: cell-based. The source says:
The slime inhibitor was brought into contact with water containing viable bacteria, and the number of viable bacteria before the contact with the slime inhibitor and the number of viable bacteria after contact with the slime inhibitor for one hour were examined.

With `OCl` [Sodium hypochlorite, sodium hypochlorite], the “Number of viable bacteria before contact with slime inhibitor” value (baseline before contact) was 10^6. Moreover, for the setting “slime inhibitor 0.1 mg/L as Cl2, contact one hour”, the “Number of viable bacteria after contact with slime inhibitor for one hour” value is listed as 10^5.
